{"source": "the supplement of paper PMC11208160"}
{"assay": "recombinant barcode read abundance after kanamycin selection (control-corrected) (log10(CPM+1)); higher = more efficient recombination; sequences stand for … in AGTGCAGAGAAAATCGGCCAGTTTTCTCTGCCTGCAGTCCGCATGCCGT…AGATTTATGCAGCGGACTGCCTTTCTCCCAAAGTGATAAACCGGACAGTATCATGGACCGGTTTTCCCGGTAATCCGTATTTGCAAGGTTGGTTTCACT; site = the 11-nt target", "in_short": "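Recombination efficiency in this pooled E. coli screen uses counts per million of barcodes at recombinant junctions, averaged and corrected against the control. The reported form is log10(CPM+1). Two replicates were plated on chloramphenicol/ampicillin LB agar as control and two on chloramphenicol/ampicillin/kanamycin with 0.1 mM IPTG.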"}
{"sequence": "GGCACCGCTTGGGTTCTAACCTGTTGCCT (site GGCACAGCTAG)", "recombinant barcode read abundance (log10)": 0.0859}
{"sequence": "GTCTTACCTTGGGTTCTAACCTGTTGCCT (site GTCATACCTAG)", "recombinant barcode read abundance (log10)": 0.0521}
{"sequence": "GTCGCGTCTTGGGTTCTAACCTGTTGCCT (site GTCGCGTCTAG)", "recombinant barcode read abundance (log10)": 0.328}
{"sequence": "GCGGCTCCTTGGGTTCTAACCTGTTGCAT (site GCGACTCCTAT)", "recombinant barcode read abundance (log10)": 0.0805}
{"sequence": "GGCCGGGCTTGGGTTCTAACCTGTTGCCT (site GGCCGGGCTAG)", "recombinant barcode read abundance (log10)": 0.219}
{"sequence": "GTTCAAACTTGGGTTCTAACCTGTTGCAT (site GTTCAAACTAT)", "recombinant barcode read abundance (log10)": 1.2}
{"sequence": "ATCCAACCTTGGGTTCTAACCTGTTGCCT (site ATCCACCCTAG)", "recombinant barcode read abundance (log10)": 0.123}
{"sequence": "AGTACTACTTGGGTTCTAACCTGTTGCCT (site ACTACTACTAG)", "recombinant barcode read abundance (log10)": 0.0106}
{"sequence": "TAGAACACTTGGGTTCTAACCTGTTGCTC (site TAGAACACTGA)", "recombinant barcode read abundance (log10)": 0.262}
{"sequence": "TTAGGGTCTTGGGTTCTAACCTGTTGCCT (site TTAGGGCCTAG)", "recombinant barcode read abundance (log10)": 1.17}
{"sequence": "TCACCGCCTTGGGTTCTAACCTGTTGCCT (site ACACCGCCTAG)", "recombinant barcode read abundance (log10)": 0.75}
{"sequence": "GGGGCTTCTTGGGTTCTAACCTGTTGCCT (site GTGGCTTCTAG)", "recombinant barcode read abundance (log10)": 0.245}
{"sequence": "GTCGGAGCTTGGGTTCTAACCTGTTGCGG (site GTCGGAGCTCG)", "recombinant barcode read abundance (log10)": 0.0393}
{"sequence": "GAGGCTCCTTGGGTTCTAACCTGTTGCCA (site GAGGCTCCTGG)", "recombinant barcode read abundance (log10)": 0.164}
{"sequence": "CTTTAGTCTTGGGTTCTAACCTGTTGCTA (site CTTTAGTCTTA)", "recombinant barcode read abundance (log10)": 0.174}
{"sequence": "GGTGAGCCTTGGGTTCTAACCTGTTGCGT (site GGTGAGCCTAC)", "recombinant barcode read abundance (log10)": 2.68}
{"sequence": "TAGAAGCCTTGGGTTCTAACCTGTTGCCT (site CAGAAGCCTAG)", "recombinant barcode read abundance (log10)": 0.43}
{"sequence": "ACCGAGACTTGGGTTCTAACCTGTTGCCT (site ACCGAGACTAG)", "recombinant barcode read abundance (log10)": 0.224}
{"sequence": "CTGCTACCTTGGGTTCTAACCTGTTGCCT (site CGGCTACCTAG)", "recombinant barcode read abundance (log10)": 0.0908}
{"sequence": "GGAAGGTCTTGGGTTCTAACCTGTTGCAT (site ACGTCCACTTG)", "recombinant barcode read abundance (log10)": 0.0537}
{"sequence": "GCAAGTACTTGGGTTCTAACCTGTTGCAG (site AGGTTAGCTTA)", "recombinant barcode read abundance (log10)": 0.106}
{"sequence": "ACATGTGCTTGGGTTCTAACCTGTTGCCT (site ACAGGTGCTAG)", "recombinant barcode read abundance (log10)": 0.0246}
{"sequence": "CGAACTACTTGGGTTCTAACCTGTTGCAT (site CGAACTACTAG)", "recombinant barcode read abundance (log10)": 0.0576}
{"sequence": "GAGGGCCCTTGGGTTCTAACCTGTTGCCG (site GAGGGCCCTCA)", "recombinant barcode read abundance (log10)": 0.29}
{"sequence": "GGCACCGCTTGGGTTCTAACCTGTTGCCT (site GGCACCGCTAG)", "recombinant barcode read abundance (log10)": 0.905}
{"sequence": "CTTGCGACTTGGGTTCTAACCTGTTGCTT (site CTTGCGACTAA)", "recombinant barcode read abundance (log10)": 0.391}
{"sequence": "GTAACGACTTGGGTTCTAACCTGTTGCCA (site GTAACGACTTG)", "recombinant barcode read abundance (log10)": 1.08}
{"sequence": "GACCGTCCTTGGGTTCTAACCTGTTGCTT (site GACCGTCCTAT)", "recombinant barcode read abundance (log10)": 1.19}
{"sequence": "TCGAACCCTTGGGTTCTAACCTGTTGCCT (site TCGAAGCCTAG)", "recombinant barcode read abundance (log10)": 0.115}
{"sequence": "GGGGAGCCTTGGGTTCTAACCTGTTGCTG (site GGGGAGCCTCA)", "recombinant barcode read abundance (log10)": 2.9}
{"sequence": "GTGAGGTCTTGGGTTCTAACCTGTTGCCT (site GTGAGGTCTAG)", "recombinant barcode read abundance (log10)": 1.62}
{"sequence": "GGCGCCTCTTGGGTTCTAACCTGTTGCGC (site AATCTAACTAG)", "recombinant barcode read abundance (log10)": 0.139}
{"sequence": "GACGTAACTTGGGTTCTAACCTGTTGCAG (site GACGTAACTCT)", "recombinant barcode read abundance (log10)": 1.15}
{"sequence": "GAGGCTCCTTGGGTTCTAACCTGTTGCCT (site GAGGCTCCTCG)", "recombinant barcode read abundance (log10)": 0.0603}
{"sequence": "GGGAACCCTTGGGTTCTAACCTGTTGCTA (site GGGAACCCTAA)", "recombinant barcode read abundance (log10)": 0.147}
{"sequence": "CTGCGTGCTTGGGTTCTAACCTGTTGCCT (site CCGCGTGCTAG)", "recombinant barcode read abundance (log10)": 0.909}
{"sequence": "CTACAGACTTGGGTTCTAACCTGTTGCGA (site CTACAGACTTC)", "recombinant barcode read abundance (log10)": 2.73}
{"sequence": "AGTTGTCCTTGGGTTCTAACCTGTTGCGT (site AGTTGTCCTAT)", "recombinant barcode read abundance (log10)": 0.251}
{"sequence": "GGCCGGACTTGGGTTCTAACCTGTTGCCT (site GGCCGGCCTAG)", "recombinant barcode read abundance (log10)": 0.253}
{"sequence": "AACAGGTCTTGGGTTCTAACCTGTTGCCT (site AACAGGTCTAG)", "recombinant barcode read abundance (log10)": 0.902}
{"sequence": "GGAAAGACTTGGGTTCTAACCTGTTGCCT (site GGGAAGACTAG)", "recombinant barcode read abundance (log10)": 0.297}
{"sequence": "GGCTAGACTTGGGTTCTAACCTGTTGCGG (site GGCTAGACTCC)", "recombinant barcode read abundance (log10)": 1.43}
{"sequence": "GTATGCCCTTGGGTTCTAACCTGTTGCTA (site GTATCCACTTA)", "recombinant barcode read abundance (log10)": 0.273}
{"sequence": "TAGGCGTCTTGGGTTCTAACCTGTTGCAG (site TAGGCGTCTCT)", "recombinant barcode read abundance (log10)": 2.27}
{"sequence": "GAGGAGCCTTGGGTTCTAACCTGTTGCGT (site GAGGAGCCTAC)", "recombinant barcode read abundance (log10)": 2.62}
{"sequence": "GACCTCCCTTGGGTTCTAACCTGTTGCTG (site GACCTACCTCT)", "recombinant barcode read abundance (log10)": 0.219}
{"sequence": "AATGTGTCTTGGGTTCTAACCTGTTGCCT (site AATGTGTCTAG)", "recombinant barcode read abundance (log10)": 2.59}
{"sequence": "CCGCGTCCTTGGGTTCTAACCTGTTGCTA (site CCGCGTCCTTA)", "recombinant barcode read abundance (log10)": 0.111}
{"sequence": "TAGTGCTCTTGGGTTCTAACCTGTTGCCA (site TAGTGCTCTCG)", "recombinant barcode read abundance (log10)": 0.0477}
{"sequence": "CTATGGACTTGGGTTCTAACCTGTTGCAA (site CTATGGACTGT)", "recombinant barcode read abundance (log10)": 0.274}
{"sequence": "CAAATTACTTGGGTTCTAACCTGTTGCCT (site CAAATTACTAG)", "recombinant barcode read abundance (log10)": 0.0574}
{"sequence": "CTAGACTCTTGGGTTCTAACCTGTTGCTC (site CTAGACTCTCA)", "recombinant barcode read abundance (log10)": 0.0281}
{"sequence": "CGGAAGTCTTGGGTTCTAACCTGTTGCCT (site CGGAAGGCTAG)", "recombinant barcode read abundance (log10)": 0.247}
{"sequence": "CTAGACTCTTGGGTTCTAACCTGTTGCTT (site CTAGACTCTCA)", "recombinant barcode read abundance (log10)": 0.304}
{"sequence": "TATTCTACTTGGGTTCTAACCTGTTGCGT (site TATTCTACTAC)", "recombinant barcode read abundance (log10)": 0.0342}
{"sequence": "TACGCCTCTTGGGTTCTAACCTGTTGCTA (site TGCGCCTCTCA)", "recombinant barcode read abundance (log10)": 0.299}
{"sequence": "CACACCGCTTGGGTTCTAACCTGTTGCCT (site CACACGGCTAG)", "recombinant barcode read abundance (log10)": 0.0403}
{"sequence": "TGCTTCCCTTGGGTTCTAACCTGTTGCGG (site TGCTTCCCTCC)", "recombinant barcode read abundance (log10)": 0.594}
{"sequence": "CGGGCCACTTGGGTTCTAACCTGTTGCCT (site CAGGCCACTAG)", "recombinant barcode read abundance (log10)": 0.198}
{"sequence": "TCCTGGCCTTGGGTTCTAACCTGTTGCCT (site TCCAGGGCTAG)", "recombinant barcode read abundance (log10)": 0.209}
{"sequence": "CGAATCACTTGGGTTCTAACCTGTTGCCT (site CGAATCCCTAG)", "recombinant barcode read abundance (log10)": 0.062}
{"sequence": "TCACCTGCTTGGGTTCTAACCTGTTGCCT (site TCACATGCTAG)", "recombinant barcode read abundance (log10)": 0.0199}
{"sequence": "TGTCATGCTTGGGTTCTAACCTGTTGCGT (site CTCACACCTCT)", "recombinant barcode read abundance (log10)": 0.238}
{"sequence": "CTGAGCCCTTGGGTTCTAACCTGTTGCAT (site CTGAGCCCTAT)", "recombinant barcode read abundance (log10)": 1.09}
{"sequence": "CGGGCCACTTGGGTTCTAACCTGTTGCCT (site CCGGCCACTAG)", "recombinant barcode read abundance (log10)": 0.0207}
{"sequence": "CGAGTGACTTGGGTTCTAACCTGTTGCAG (site ATTAACTCTAG)", "recombinant barcode read abundance (log10)": 0.0869}
